Data from patent publication US5684023A, “Benzofuranyl -and benzothienyloxazolidinones” (Bayer Aktiengesellschaft, priority 1994, dated 1997).
In brackets after ≈: the same amount, converted by molar mass.

What was measured:
Test in all cases: MIC, serial dilution (Iso-Sensitest agar / microdilution in BH medium)
Type in all cases: cell-based
[1] = tested on: Staph. 133; conditions: 37° C., about 20 hours
Procedure: (§1) The minimum inhibitory concentrations (MIC) were determined by serial dilution methods on Iso-Sensitest agar (Oxoid). For each test substance, a number of agar plates were prepared which contained a decreasing concentration of the active compound on double dilution in each case. The agar plates were inoculated with a multipoint inoculator (Denley). For inoculation, overnight cultures of the bacilli were used which were previously diluted such that each inoculation point contained about 10^4 colony-forming particles. The inoculated agar plates were incubated at 37° C., and the bacterial growth was read off after about 20 hours. The MIC value (μg/ml) indicates the lowest active compound concentration at which no growth could be detected using the naked eye. The MIC values were determined in BH medium with the aid of the microdilution method. Each test substance was dissolved in the nutrient medium. A concentration series of the test substances was prepared in the microtiter plates by serial dilution. For inoculation, overnight cultures of the bacilli were used which had previously been diluted 1:250 in the nutrient medium. 100 μl each of inoculation solution were added to 100 μl of the diluted, active compound-containing nutrient solutions. The microtiter plates were incubated at 37° C. and read off after about 20 hours. The MIC value (μg/ml) indicates the lowest active compound concentration at which no growth could be detected.

[2] = tested on: Staph 9TV; conditions: 37° C., about 20 hours
Procedure: as §1

[3] = tested on: Staph. 48N; conditions: 37° C., about 20 hours
Procedure: as §1

[4] = tested on: Klebs. 57 USA; conditions: 37° C., about 20 hours
Procedure: as §1

[5] = tested on: Staph 25701; conditions: 37° C., about 20 hours
Procedure: as §1

[6] = tested on: E. coli Neumann; conditions: Escherichia coli, 37° C., about 20 hours
Procedure: as §1

[7] = tested on: Psdm. Bonn; conditions: 37° C., about 20 hours
Procedure: as §1

MIC [1] [µg/mL]	MIC [2] [µg/mL]	MIC [3] [µg/mL]	MIC [4] [µg/mL]	MIC [5] [µg/mL]	MIC [6] [µg/mL]	MIC [7] [µg/mL]	SMILES
1 (≈ 3.47 µM)	0.5 (≈ 1.73 µM)	1 (≈ 3.47 µM)	> 64	1 (≈ 3.47 µM)	> 64	> 64	CC(=O)NC[C@H]1CN(c2ccc3oc(C)cc3c2)C(=O)O1 [Example 16]
16 (≈ 49.6 µM)	8 (≈ 24.8 µM)	16 (≈ 49.6 µM)	> 64	16 (≈ 49.6 µM)	> 64	> 64	CC(=O)NC[C@H]1CN(c2ccc3c(c2)C=CS3(=O)=O)C(=O)O1 [Example 27]
4 (≈ 13.8 µM)	2 (≈ 6.89 µM)	4 (≈ 13.8 µM)	> 64	2 (≈ 6.89 µM)	> 64	> 64	CC(=O)NC[C@H]1CN(c2ccc3sccc3c2)C(=O)O1 [Example 9, (5S)-3-[5-Benzo[b]thiophenyl]5-acetylamino-methyl-oxazolidin-2-one]
